Laboratory results as given in article PMC8998492 (2022).
Values belong to the compound of their own block, whether it stands above or below them.

Columns and labels:
[1] = tested on: c-myc promoter i-motif (DNA, i motif) CCCCACCTTCCCCACCCTCCCCACCCTCCCC; assay: fluorescent displacement (FID), microplate reader; conditions: 100 mM KCl; 1 × BPES; tracer G59 displaced
[2] = tested on: 5'-biotin c-myc (i-motif) (DNA, i motif) CCCCACCTTCCCCACCCTCCCCACCCTCCCC; assay: SPR; conditions: 100 mM KCl; 20 mM MES pH 5.5, 0.05% Tween-20, 25 °C; DNA immobilised
[3] = tested on: 5'-biotin c-myc G-quadruplex (DNA, G4) TTGAGGGTGGGTAGGGTGGGTAAA; assay: SPR; conditions: 100 mM KCl; 20 mM Tris-HCl pH 7.4, 25 °C; DNA immobilised
[4] = tested on: c-myc-C25G (DNA, i motif) CCCCACCTTCCCCACCCTCCCCACGCTCCCC; assay: fluorescence enhancement; conditions: 100 mM KCl; 1 × BPES pH 5.5
[5] = tested on: c-myc-C16G (DNA, i motif) CCCCACCTTCCCCACGCTCCCCACCCTCCCC; assay: fluorescence enhancement; conditions: 100 mM KCl; 1 × BPES pH 5.5
[6] = tested on: DS26 (DNA, duplex) CAATCGGATCGAATTCGATCCGATTG; assay: fluorescence titration; conditions: 100 mM KCl; 20 mM Tris-HCl pH 7.4; also unstained in PAGE
[7] = tested on: c-myc promoter i-motif (DNA, i motif) CCCCACCTTCCCCACCCTCCCCACCCTCCCC; assay: CD melting; conditions: 100 mM KCl; 1 × BPES pH 5.5; 2 μM DNA, 10 μM G59; Tm 53.1 to 59.9 °C
[8] = tested on: c-myc promoter i-motif (DNA, i motif) CCCCACCTTCCCCACCCTCCCCACCCTCCCC; assay: ITC; conditions: 100 μM G59 injected into 4 μM DNA; KD = 1/Ka (Ka 5.94×10^5 M-1)
[9] = tested on: c-myc-C7T (DNA, i motif) CCCCACTTTCCCCACCCTCCCCACCCTCCCC; assay: fluorescence enhancement; conditions: 100 mM KCl; 1 × BPES pH 5.5
[10] = tested on: c-myc-C25A (DNA, i motif) CCCCACCTTCCCCACCCTCCCCACACTCCCC; assay: fluorescence enhancement; conditions: 100 mM KCl; 1 × BPES pH 5.5
[11] = tested on: c-myc-C25T (DNA, i motif) CCCCACCTTCCCCACCCTCCCCACTCTCCCC; assay: fluorescence enhancement; conditions: 100 mM KCl; 1 × BPES pH 5.5
[12] = tested on: c-myc promoter i-motif (DNA, i motif) CCCCACCTTCCCCACCCTCCCCACCCTCCCC; assay: fluorescence enhancement; conditions: 100 mM KCl; 1 × BPES pH 5.5
[13] = tested on: c-myc-C16T (DNA, i motif) CCCCACCTTCCCCACTCTCCCCACCCTCCCC; assay: fluorescence enhancement; conditions: 100 mM KCl; 1 × BPES pH 5.5
[14] = tested on: c-myc-C7G (DNA, i motif) CCCCACGTTCCCCACCCTCCCCACCCTCCCC; assay: fluorescence enhancement; conditions: 100 mM KCl; 1 × BPES pH 5.5
[15] = tested on: SS26 (DNA, single strand) ATACGATGCTTCACGGTGCTATCTG; assay: fluorescence titration; conditions: 100 mM KCl; 20 mM Tris-HCl pH 7.4; also unstained in PAGE
[16] = tested on: c-myc-C16A (DNA, i motif) CCCCACCTTCCCCACACTCCCCACCCTCCCC; assay: fluorescence enhancement; conditions: 100 mM KCl; 1 × BPES pH 5.5
[17] = tested on: c-myc-C7A (DNA, i motif) CCCCACATTCCCCACCCTCCCCACCCTCCCC; assay: fluorescence enhancement; conditions: 100 mM KCl; 1 × BPES pH 5.5
[18] = tested on: c-myc promoter i-motif (DNA, i motif) CCCCACCTTCCCCACCCTCCCCACCCTCCCC; assay: fluorescent displacement (FID); conditions: 100 mM KCl; 1 × BPES pH 5.5; tracer 1 μM G59 displaced, 2 μM DNA; 5 eq (5 μM) 3be

- binding [1]: yes
- KD [2]: 9.52 µM
- KD [3]: 46.2 µM
SMILES: C[C@H]1O[C@@H](O[C@H]2CC[C@@]3(C)[C@@H](CC[C@]4(C)[C@@H]3C=CC3=C5CC(C)(C)CC[C@]5(CO)[C@H](O)C[C@]34C)[C@]2(C)CO)[C@H](O)[C@@H](O[C@@H]2O[C@H](CO)[C@@H](O)[C@H](O)[C@H]2O)[C@H]1O

- FI/F0 [4]: 6.59
- FI/F0 [5]: 6.03
- binding [6]: weak
- ΔTm [7]: 6.8 °C
- KD [8]: 1.68 µM
- FI/F0 [9]: 18.35
- FI/F0 [10]: 17.15
- FI/F0 [11]: 17.92
- FI/F0 [12]: 17.98
- FI/F0 [13]: 18.23
- FI/F0 [14]: 5.44
- binding [15]: weak
- FI/F0 [16]: 15.2
- FI/F0 [17]: 13.35
SMILES: O=C1c2cccc3c(-c4ccc5c(c4)c4cc(-c6ccc7c8c(cccc68)C(=O)N(CCN6CCCC6)C7=O)ccc4n5CCN4CCCC4)ccc(c23)C(=O)N1CCN1CCCC1

- relative replacement ratio [18]: 42.09%
SMILES: c1ccc2c(c1)c1cc(-c3cn(CCN4CCCC4)nn3)ccc1n2CCN1CCCC1
